Assay results as given in article PMC4491109, “Synthesis and anticonvulsant activity of new N-phenyl-2-(4-phenylpiperazin-1-yl)acetamide derivatives” (Medicinal Chemistry Research, 2015).
Where two headings read alike, the source gives them in different places.

Assays:
[1] = test system: pentylenetetrazole-induced seizures; test: Subcutaneous pentylenetetrazole (scPTZ) test, i.p. administration in mice; format: in vivo; details: Mus musculus, ip, doses of 30, 100 or 300 mg/kg
Protocol: (§1) Considering the aforementioned facts, the profile of anticonvulsant activity of final compounds 3–24 was established in the MES and scPTZ tests, after intraperitoneal (i.p.) injection in mice at doses of 30, 100 and 300 mg/kg. An observation was carried out at two different time intervals—0.5 and 4 h. Furthermore, in addition to the primary anticonvulsant screening, the acute neurological toxicity (NT) was determined in mice by the rotarod test.
(§2) Compounds 3–24 were pharmacologically preevaluated within the Antiepileptic Drug Development (ADD) Program in Epilepsy Branch, Neurological Disorders Program, National Institute of the Neurological and Communicative Disorders and Stroke (NIH/NINDS), Rockville, MD, USA, by using procedures described elsewhere (Krall et al., [1978]; Kupferberg, [1989]).
(§3) Phase I of the in vivo studies involved three tests: MES, scPTZ and rotarod test for NT. Male albino mice (CF#1 strain, weighing 18–25 g) and male albino rats (Sprague–Dawley) were used as experimental animals. The animals were housed in metabolic cages and allowed free access to food and water. The compounds were injected intraperitoneally to mice as a suspension in 0.5 % methylcellulose/water mixture at a dose level 30, 100 or 300 mg/kg with anticonvulsant activity and neurotoxicity assessment at 0.5 and 4 h after administration. Promising derivatives from phase I underwent phase VIa in which they were administrated orally into rats at a fixed dose of 30 mg/kg for both MES and the rotarod toxicity determination at five pretreatment times: 0.25, 0.5, 1, 2, 4 h. Groups of eight mice or four rats are employed.
The scPTZ test utilizes a dose of pentylenetetrazole (85 mg/kg in mice) that produces clonic seizures lasting for a period of at least 5 s in 97 % (CD97) of animals tested. PTZ is administered 0.5 and 4 h after injections of tested compounds, and observation is carried out for 30 min. In the control groups, the first episode of clonic convulsions is observed between 6 and 15 min of observation. The absence of clonic convulsions in the observed time period of […] is interpreted as the compound’s ability to protect against PTZ-induced seizures.

[2] = test system: maximal electroshock (MES) seizures; test: Maximal electroshock (MES) test, i.p. administration in mice; format: in vivo; details: Mus musculus, ip, doses of 30, 100 or 300 mg/kg
Protocol: as §1, §2, §3
In the MES screen, an electrical stimulus of 0.2 s in duration (50 mA in mice and 150 mA in rats) is delivered via corneal electrodes primed with an electrolyte solution containing an anesthetic agent. The endpoint is the tonic extension of the hind limbs. In the control groups, the procedures cause immediate hind limb tonic extension. Mice not displaying hind limb tonic extension are considered to be protected from seizures.

[3] = 0.5 h, read-out: scPTZ, minimum dose effective in half or more animals tested, 0.5 h
[4] = 4 h, read-out: scPTZ, minimum dose effective in half or more animals tested, 4 h
[5] = 0.5 h, read-out: MES, minimum dose effective in half or more animals tested, 0.5 h
[6] = 4 h, read-out: MES, minimum dose effective in half or more animals tested, 4 h

Compound | minimal effective dose [1, 3] | minimal effective dose [1, 4] | minimal effective dose [2, 5] | minimal effective dose [2, 6]
Cl.O=C(CN1CCN(c2ccccc2F)CC1)Nc1cccc(Cl)c1 [Compound 7, N-(3-chlorophenyl)-2-[4-(2-fluorophenyl)piperazin-1-yl]acetamide monohydrochloride] | > 300 mg/kg | > 300 mg/kg | > 300 mg/kg | > 300 mg/kg
O=C(CN1CCN(c2cccc(Cl)c2Cl)CC1)Nc1cccc(C(F)(F)F)c1 [Compound 17, 2-[4-(2,3-Dichlorophenyl)piperazin-1-yl]-N-[3-(trifluoromethyl)phenyl]acetamide] | > 300 mg/kg | > 300 mg/kg | > 300 mg/kg | > 300 mg/kg
Cl.O=C(CN1CCN(c2ncccn2)CC1)Nc1cccc(Cl)c1 [Compound 10, N-(3-chlorophenyl)-2-(4-pyrimidin-2-ylpiperazin-1-yl)acetamide monohydrochloride] | > 300 mg/kg | > 300 mg/kg | > 300 mg/kg | > 300 mg/kg
O=C(CN1CCN(c2ccc(Cl)cc2)CC1)Nc1cccc(C(F)(F)F)c1 [Compound 16, 2-[4-(4-Chlorophenyl)piperazin-1-yl]-N-[3-(trifluoromethyl)phenyl]acetamide] | > 300 mg/kg | > 300 mg/kg | > 300 mg/kg | 100 mg/kg
Cl.O=C(CN1CCN(c2ccccc2F)CC1)Nc1cccc(C(F)(F)F)c1 [Compound 18, 2-[4-(2-Fluorophenyl)piperazin-1-yl]-N-[3-(trifluoromethyl)phenyl]acetamide monohydrochloride] | > 300 mg/kg | > 300 mg/kg | > 300 mg/kg | 100 mg/kg
Cl.O=C(CN1CCN(c2ccc(F)cc2)CC1)Nc1cccc(Cl)c1 [Compound 8, N-(3-chlorophenyl)-2-[4-(4-fluorophenyl)piperazin-1-yl]acetamide monohydrochloride] | > 300 mg/kg | > 300 mg/kg | > 300 mg/kg | > 300 mg/kg
Cl.O=C(CN1CCN(c2cccc(C(F)(F)F)c2)CC1)Nc1cccc(Cl)c1 [Compound 9, N-(3-chlorophenyl)-2-[4-[3-(trifluoromethyl)phenyl]piperazin-1-yl]acetamide monohydrochloride] | > 300 mg/kg | > 300 mg/kg | > 300 mg/kg | > 300 mg/kg
Cl.O=C(CN1CCN(c2ccccc2)CC1)Nc1cccc(Cl)c1 [Compound 3, N-(3-chlorophenyl)-2-(4-phenylpiperazin-1-yl)acetamide monohydrochloride] | > 300 mg/kg | > 300 mg/kg | > 300 mg/kg | > 300 mg/kg
Cl.O=C(CN1CCN(c2ccc(Cl)cc2)CC1)Nc1cccc(Cl)c1 [Compound 5, N-(3-chlorophenyl)-2-[4-(4-chlorophenyl)piperazin-1-yl]acetamide monohydrochloride] | > 300 mg/kg | > 300 mg/kg | > 300 mg/kg | > 300 mg/kg
Cl.O=C(CN1CCN(c2ccccc2Cl)CC1)Nc1cccc(C(F)(F)F)c1 [Compound 15, 2-[4-(2-Chlorophenyl)piperazin-1-yl]-N-[3-(trifluoromethyl)phenyl]acetamide monohydrochloride] | > 300 mg/kg | > 300 mg/kg | > 300 mg/kg | > 300 mg/kg
Cl.O=C(CN1CCN(c2ccccc2Cl)CC1)Nc1cccc(Cl)c1 [Compound 4, N-(3-chlorophenyl)-2-[4-(2-chlorophenyl)piperazin-1-yl]acetamide monohydrochloride] | > 300 mg/kg | > 300 mg/kg | > 300 mg/kg | > 300 mg/kg
